The source of these data is patent US9375004B2 (Bayer Intellectual Property GmbH, priority 2010, dated 2016).

One data set concerns Alternaria solani. Kind of data set: Alternaria test (tomato)/preventive. It counts as in vivo. To be noted: 500 ppm, preventive, evaluated 7 days after inoculation.
The test system of another data set is Sphaerotheca fuliginea. Kind of data set: Sphaerotheca test (cucumber)/preventive. Type of data set: in vivo. The note with it: 500 ppm, preventive, evaluated 7 days after inoculation.
In a further data set the test system is Botrytis cinerea. In words: Botrytis test (beans)/preventive. To be noted: 100 ppm, preventive, lesion size 2 days after inoculation.
In another data set the test system is Venturia inaequalis. Kind of data set: Venturia test (apples)/preventive. The note with it: 100 ppm, preventive, evaluated 10 days after inoculation.
A short description of data set [1]: logP by HPLC on reversed-phase column (EEC Directive 79/831 Annex V.A8). To be noted: HPLC on reversed-phase column (C 18), EEC Directive 79/831 Annex V.A8.
In a further data set the test system is Uromyces appendiculatus. The note with it: 100 ppm, beans, preventive, evaluated 10 days after inoculation.
The next data set has as its system Puccinia triticina. In words: Puccinia triticina-test (wheat)/preventive. It counts as in vivo. The note with it: 500 ppm, preventive, evaluated 8 days after inoculation.
In data set [2] the test system is Fusarium nivale (var. majus). Kind of data set: Fusarium nivale (var. majus)-test (wheat)/preventive. The note with it: preventive, evaluated 5 days after inoculation.
The test system of another data set is Pyrenophora teres. Kind of data set: Pyrenophora teres-test (barley)/preventive. It counts as in vivo. To be noted: 500 ppm, preventive, evaluated 8 days after inoculation.

Usually logP stands for the decadic logarithm of the partition coefficient of the neutral form, usually between octanol and water. A high value points to a more lipophilic compound.

Where two headings read alike, the source gives them in different places.

Regarding `CC1CCCC(c2ccccc2NC(=O)c2c(C(F)F)nn(C)c2Cl)C1` (centres unmarked) [Example 53], the Efficacy came to 100% with Alternaria solani; 100% in the data set with Sphaerotheca fuliginea; 94% with Botrytis cinerea; 100% in the data set on Venturia inaequalis; 100% with Uromyces appendiculatus. For the same compound, in [1], the logP was determined as 4.29.

With `Cn1nc(C(F)F)c(C(=O)Nc2ccccc2-c2ccc(Br)cc2)c1Cl` [Example 140], the Efficacy in the data set on Puccinia triticina stood at 100%; in data set [2] (500 ppm), 86%; with Botrytis cinerea, 98%; in the data set with Venturia inaequalis, 100%; in the data set with Uromyces appendiculatus, 100%; in the data set with Pyrenophora teres, 100%. This compound showed a logP in data set [1] of 3.88.

Regarding `Cn1nc(C(F)F)c(C(=O)Nc2cccc3c2C2CCC3C2=C(Cl)Cl)c1Cl` (centres unmarked) [Example 71], the Efficacy in the data set with Puccinia triticina came out at 100%; in data set [2] (250 ppm) it was 94%; in [2] (500 ppm) it was 94%; in the data set with Alternaria solani, 80%; in the data set with Sphaerotheca fuliginea, 100%; in the data set with Botrytis cinerea, 94%. Besides, the Efficacy in the data set on Venturia inaequalis, with Uromyces appendiculatus and in the data set with Pyrenophora teres was 100% each time. This compound displayed a logP in data set [1] of 4.21.

As for `Cn1nc(C(F)F)c(C(=O)Nc2ccccc2-c2ccc(Cl)cc2)c1Cl` [Example 88], the Efficacy was determined as 100% in the data set on Puccinia triticina; 100% in data set [2] (500 ppm); 94% with Alternaria solani; 100% with Sphaerotheca fuliginea; 92% with Botrytis cinerea; 100% with Venturia inaequalis. The Efficacy with Uromyces appendiculatus and with Pyrenophora teres was 100% each time. The same compound registered a logP in data set [1] of 3.85.

As for `Cn1nc(C(F)F)c(C(=O)Nc2cccc3c2C2CCC3C2=C(Cl)Cl)c1F` (centres unmarked) [Example 72], the Efficacy amounted to 94% with Puccinia triticina; 100% in [2] (250 ppm); 100% in [2] (500 ppm); 70% with Alternaria solani; 100% in the data set with Sphaerotheca fuliginea; 100% in the data set on Botrytis cinerea. Further, the Efficacy in the data set on Venturia inaequalis, in the data set on Uromyces appendiculatus and in the data set on Pyrenophora teres was 100% each time. The compound also had a logP in data set [1] of 3.99.

In the case of `CCCC(C)c1ccccc1NC(=O)c1c(C(F)F)nn(C)c1F` (centres unmarked) [Example 8], the Efficacy amounted to 100% with Puccinia triticina; 95% in the data set on Alternaria solani; 98% in the data set on Botrytis cinerea; 100% in the data set with Venturia inaequalis; 100% with Uromyces appendiculatus; 100% in the data set with Pyrenophora teres. Also, the logP in [1] came to 3.55.

As to `Cn1nc(C(F)F)c(C(=O)Nc2ccccc2-c2ccc(Br)c(Cl)c2)c1F` [Example 152], the Efficacy in the data set on Puccinia triticina worked out at 100%; in data set [2] (500 ppm) it was 100%; in the data set on Alternaria solani it was 94%; in the data set with Sphaerotheca fuliginea, 95%; in the data set with Botrytis cinerea, 100%; in the data set on Venturia inaequalis it was 100%. Moreover, the Efficacy with Uromyces appendiculatus and with Pyrenophora teres was 100% each time. For the same compound, in [1], the logP is 3.83.

For `Cn1nc(C(F)F)c(C(=O)Nc2ccccc2-c2ccc(Cl)cc2)c1F` [Example 85], the Efficacy worked out at 100% with Puccinia triticina; 100% in data set [2] (500 ppm); 95% with Alternaria solani; 98% with Sphaerotheca fuliginea; 100% in the data set on Botrytis cinerea; 100% in the data set on Venturia inaequalis. The Efficacy with Uromyces appendiculatus and with Pyrenophora teres was 100% each time. This compound returned a logP in data set [1] of 3.57.

In the case of `Cn1nc(C(F)F)c(C(=O)Nc2ccccc2-c2ccc(F)c(F)c2)c1Cl` [Example 89], the Efficacy in the data set with Puccinia triticina was determined as 100%; in [2] (500 ppm), 100%; with Alternaria solani it was 94%; with Sphaerotheca fuliginea, 100%; with Botrytis cinerea, 100%; in the data set with Venturia inaequalis, 100%. For the same compound, the Efficacy in the data set on Uromyces appendiculatus and in the data set with Pyrenophora teres was 100% throughout. Further, in data set [1], the logP was 3.40.

Take `Cn1nc(C(F)F)c(C(=O)Nc2c(F)cccc2-c2ccc(Cl)c(Cl)c2)c1F` [Example 115]: the Efficacy came out at 88% with Puccinia triticina; 86% in data set [2] (500 ppm); 95% in the data set on Alternaria solani; 94% with Botrytis cinerea; 100% in the data set with Venturia inaequalis; 100% with Uromyces appendiculatus. This compound also displayed a logP in data set [1] of 3.50.

Take `Cn1nc(C(F)F)c(C(=O)Nc2ccccc2-c2ccc(Br)cc2Cl)c1Cl` [Example 154]: the Efficacy is listed as 95% with Alternaria solani; 100% in the data set with Sphaerotheca fuliginea; 78% in the data set with Botrytis cinerea; 100% in the data set on Venturia inaequalis; 100% with Uromyces appendiculatus. In [1], this compound registered a logP of 4.16.

Take `Cn1nc(C(F)F)c(C(=O)Nc2ccc(F)cc2-c2ccc(C(F)(F)F)c(F)c2)c1F` [Example 150]: the Efficacy turned out to be 100% with Puccinia triticina; 86% in data set [2] (500 ppm); 89% in the data set with Alternaria solani; 100% in the data set on Sphaerotheca fuliginea; 100% in the data set with Botrytis cinerea; 100% in the data set on Venturia inaequalis. The Efficacy with Uromyces appendiculatus was 98%; in the data set on Pyrenophora teres it was 100%. The same compound returned a logP in data set [1] of 3.66.

Take `Cn1nc(C(F)F)c(C(=O)Nc2ccccc2-c2cc(F)c(F)c(F)c2)c1F` [Example 104]: the Efficacy in the data set on Puccinia triticina, in the data set on Botrytis cinerea, with Venturia inaequalis, in the data set on Uromyces appendiculatus (listed as 104 from this invention) and in the data set with Pyrenophora teres was 100% each time. In [1], this compound yielded a logP of 3.30.

On to `Cn1nc(C(F)F)c(C(=O)Nc2ccccc2-c2cc(F)c(F)cc2F)c1Cl` [Example 108], for which the Efficacy in the data set with Alternaria solani came to 100%; with Sphaerotheca fuliginea, 93%; in the data set on Botrytis cinerea, 99%; with Venturia inaequalis, 100%; with Uromyces appendiculatus it was 100%. This compound also returned a logP in data set [1] of 3.46.

Consider `Cn1nc(C(F)F)c(C(=O)Nc2ccccc2-c2ccc(Cl)c(Cl)c2)c1F` [Example 125], for which the Efficacy in the data set with Puccinia triticina amounted to 100%; in the data set on Alternaria solani, 95%; in the data set on Sphaerotheca fuliginea, 98%; with Botrytis cinerea, 100%; in the data set on Venturia inaequalis, 100%; in the data set on Uromyces appendiculatus, 100%. In the data set on Pyrenophora teres, the Efficacy was found to be 100%. Also, in data set [1], the logP is listed as 3.85.

With `Cn1nc(C(F)F)c(C(=O)Nc2ccccc2-c2ccc(Br)cc2Cl)c1F` [Example 155], the Efficacy with Alternaria solani is 95%; with Botrytis cinerea, 100%; in the data set on Venturia inaequalis, 100%; with Uromyces appendiculatus it was 100%. This compound also yielded a log partition coefficient (logP) in [1] of 3.85.

`CCCC(C)c1ccccc1NC(=O)c1c(C(F)F)nn(C)c1Cl` (centres unmarked) [Example 9]: the Efficacy amounted to 100% in the data set with Puccinia triticina; 100% in data set [2] (500 ppm); 95% in the data set on Alternaria solani; 100% in the data set with Sphaerotheca fuliginea; 100% in the data set with Venturia inaequalis; 100% in the data set on Uromyces appendiculatus. The compound further returned an Efficacy in the data set on Pyrenophora teres of 100%. In [1], the logP is listed as 3.77.
